Laboratory results reported in patent publication US20110028398A1, “METHODS FOR TREATING AND LIMITING FIBROTIC DISORDERS AND KELOIDS” (The Arizona Board of Regents, a body corporate acting for …, priority 2006, published 2011).

How the values were obtained:
[1] = system: CTGF expression in human keloid fibroblasts; experiment: TGF-β1-induced CTGF expression, Western blot densitometry related to GAPDH; format: cell-based
Description: Fibroblast culture: Human keloid fibroblasts were grown in 10 cm^2 dishes to 70% confluence in DMEM with 10% FBS and additional penicillin and streptomycin (1%), at 37° C. and 10% CO2. Cells were serum starved in DMEM containing 0.5% FBS for 48 h before the experiment. At the start of the assay, fresh media was added to the dishes, and cells were either untreated (control) or treated with TGF-β1 (doses ranging from 0.6 to 5 ng/mL), P20 phosphopeptide (doses ranging from 50-200 μM), forskolin (FSK, 10 μM) or SNAP (500 μM) for 24 h. To verify the influence of serum starvation, we also had cells in 10% FBS containing medium (control high serum).
Western blot analysis: At the end of the experiment, cells were rinsed with PBS, and homogenized using UDC buffer. Lysates were mixed, centrifuged (6000×g) for 20 min, and the supernatant was used for determination of CTGF and collagen expression. Samples (20 μg of protein) were loaded on 15 or 10% SDS-PAGE gels, and the proteins were electrophoretically transferred to Immobilon membranes. […] Protein-antibody complexes were visualized using the Odyssey direct infrared fluorescence imaging system (Li-Cor, Lincoln, Nebr.). […]
P20 treatment and CTGF expression: Human keloid fibroblasts were serum-starved in DMEM medium containing 0.5% FBS for 48 hours, stimulated with TGF-beta1 doses ranging from 1.2 to 5 ng/mL and concomitantly treated with the P20 phosphopeptide (50, 100 or 200 μM) for 24 hours. Western blot bands were quantified by densitometry, and CTGF expression was related to GAPDH expression to correct for loading differences. […]
Treatment with compounds that elevate cAMP and cGMP: We next evaluated the influence of compounds that elevate cAMP (Forskolin, FSK) or cGMP (SNAP) on CTGF expression in keloid fibroblasts. […] Western blot bands were quantified by densitometry, and CTGF expression was related to GAPDH expression to correct for loading differences. […]

[2] = system: CTGF expression in renal fibroblasts; settings: Ott et al., 2003; cited from earlier work

CC(=O)N[C@@H](C(=O)O)C(C)(C)SN=O (racemic) [SNAP]
decrease of CTGF expression ([1]; TGF-β1-stimulated cells, SNAP 500 μM): did not decrease
CTGF expression compared to untreated (control) cells ([1]; non-stimulated cells, SNAP 500 μM, p<0.05): two-time increase

latrunculin
CTGF expression [2]: decreased

C=C[C@@]1(C)CC(=O)[C@]2(O)[C@@]3(C)[C@@H](O)CCC(C)(C)[C@@H]3[C@H](O)[C@H](OC(C)=O)[C@@]2(C)O1 [FSK, forskolin]
decrease of CTGF expression ([1]; TGF-β1-stimulated fibroblasts (2.5 ng/mL), FSK 10 μM, 24 h): ~50%
